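Where inhibition never reached the appropriate level, the endpoint shown equals the highest concentration tested. Otherwise, values were interpolated linearly from a five-concentration, 48-hour dose response in 96-well plates. GI50 = concentration required for 50% inhibition of growth. Definition used: TGI = concentration required for complete inhibition of growth.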
Key:
Experiment in all cases: inhibition of tumour cell growth, NCI panel, 48 h
OVCAR-3 ovarian = test system: OVCAR-3 ovarian
RXF 393 renal = test system: RXF 393 renal
SK-OV-3 ovarian = test system: SK-OV-3 ovarian
UACC-62 melanoma = test system: UACC-62 melanoma
NCI-H460 lung = test system: NCI-H460 lung
RPMI-8226 leukemia = test system: RPMI-8226 leukemia
786-0 renal = test system: 786-0 renal
NCI-H23 lung = test system: NCI-H23 lung
UO-31 renal = test system: UO-31 renal
SF-295 CNS = test system: SF-295 CNS
K-562 leukemia = test system: K-562 leukemia
CAKI-1 renal = test system: CAKI-1 renal
LOX IMVI melanoma = test system: LOX IMVI melanoma
SNB-19 CNS = test system: SNB-19 CNS
MDA-MB-435 = test system: MDA-MB-435
SW-620 colon = test system: SW-620 colon
HOP-62 NSCLC = test system: HOP-62 NSCLC
SR leukemia = test system: SR leukemia
OVCAR-8 ovarian = test system: OVCAR-8 ovarian
HS 578T breast = test system: HS 578T breast
HCT-116 colon = test system: HCT-116 colon
HL-60(TB) leukemia = test system: HL-60(TB) leukemia
MDA-MB-231 breast = test system: MDA-MB-231 breast
NCI-H226 lung = test system: NCI-H226 lung
OVCAR-5 ovarian = test system: OVCAR-5 ovarian
SF-268 CNS = test system: SF-268 CNS
T-47D breast = test system: T-47D breast
TK-10 renal = test system: TK-10 renal
U251 CNS = test system: U251 CNS
SK-MEL-2 melanoma = test system: SK-MEL-2 melanoma
PC-3 prostate = test system: PC-3 prostate
HCC-2998 colon = test system: HCC-2998 colon
HCT-15 colon = test system: HCT-15 colon
A549 NSCLC = test system: A549 NSCLC
KM12 colon = test system: KM12 colon
MCF7 breast = test system: MCF7 breast
NCI-H522 lung = test system: NCI-H522 lung
OVCAR-4 ovarian = test system: OVCAR-4 ovarian
HT29 colon = test system: HT29 colon
COLO 205 colon = test system: COLO 205 colon
CCRF-CEM leukemia = test system: CCRF-CEM leukemia
DU-145 prostate = test system: DU-145 prostate
MALME-3M melanoma = test system: MALME-3M melanoma
HOP-92 NSCLC = test system: HOP-92 NSCLC
SN12C renal = test system: SN12C renal
SF-539 CNS = test system: SF-539 CNS
BT-549 breast = test system: BT-549 breast
MOLT-4 leukemia = test system: MOLT-4 leukemia
SK-MEL-28 melanoma = test system: SK-MEL-28 melanoma
IGROV1 ovarian = test system: IGROV1 ovarian
NCI/ADR-RES ovarian = test system: NCI/ADR-RES ovarian
EKVX NSCLC = test system: EKVX NSCLC
UACC-257 melanoma = test system: UACC-257 melanoma
M14 melanoma = test system: M14 melanoma
A498 renal = test system: A498 renal
SK-MEL-5 melanoma = test system: SK-MEL-5 melanoma
SNB-75 CNS = test system: SNB-75 CNS
ACHN renal = test system: ACHN renal

## CCN(CC)CCOc1ccc(NC(=O)C(C(C)C)N2C(=O)/C(=C/c3ccc(Br)cc3)SC2=S)cc1 (stereo unspecified)
OVCAR-3 ovarian
  GI50: 1.95 µM
  TGI: 4.08 µM
RXF 393 renal
  GI50: 5.6 µM
  TGI: 19.1 µM
SK-OV-3 ovarian
  GI50: 15.9 µM
  TGI: 31.7 µM
UACC-62 melanoma
  GI50: 1.81 µM
  TGI: 3.53 µM
NCI-H460 lung
  GI50: 1.85 µM
  TGI: 3.51 µM
RPMI-8226 leukemia
  GI50: 2.35 µM
  TGI: 5.73 µM
786-0 renal
  GI50: 1.76 µM
  TGI: 3.22 µM
NCI-H23 lung
  GI50: 3.74 µM
  TGI: 13.9 µM
UO-31 renal
  GI50: 2.72 µM
  TGI: 12.6 µM
SF-295 CNS
  GI50: 3.41 µM
  TGI: 11.7 µM
K-562 leukemia
  GI50: 2.24 µM
  TGI: 5.86 µM
CAKI-1 renal
  GI50: 4.38 µM
  TGI: 17.1 µM
LOX IMVI melanoma
  GI50: 1.75 µM
  TGI: 3.23 µM
SNB-19 CNS
  GI50: 2.3 µM
  TGI: 6.09 µM
MDA-MB-435
  GI50: 2.1 µM
  TGI: 4.41 µM
SW-620 colon
  GI50: 1.97 µM
  TGI: 4.02 µM
HOP-62 NSCLC
  GI50: 2.36 µM
  TGI: 7.11 µM
SR leukemia
  GI50: 2.16 µM
  TGI: 6.43 µM
OVCAR-8 ovarian
  GI50: 3.24 µM
  TGI: 10.3 µM
HS 578T breast
  GI50: 12.1 µM
  TGI: 35.1 µM
HCT-116 colon
  GI50: 1.86 µM
  TGI: 3.47 µM
HL-60(TB) leukemia
  GI50: 4.96 µM
  TGI: 20.8 µM
MDA-MB-231 breast
  GI50: 1.85 µM
  TGI: 3.67 µM
NCI-H226 lung
  GI50: 16.2 µM
  TGI: 37.3 µM
OVCAR-5 ovarian
  GI50: 2.89 µM
  TGI: 10.4 µM
SF-268 CNS
  GI50: 2.27 µM
  TGI: 5.85 µM
T-47D breast
  GI50: 3.63 µM
  TGI: 19 µM
TK-10 renal
  GI50: 2.17 µM
  TGI: 5.09 µM
U251 CNS
  GI50: 1.94 µM
  TGI: 4.08 µM
SK-MEL-2 melanoma
  GI50: 14.9 µM
  TGI: 30.9 µM
PC-3 prostate
  GI50: 3.17 µM
  TGI: 12.1 µM
HCC-2998 colon
  GI50: 2.21 µM
  TGI: 5.13 µM
HCT-15 colon
  GI50: 2.01 µM
  TGI: 4.31 µM
A549 NSCLC
  GI50: 3.37 µM
  TGI: 12.5 µM
KM12 colon
  GI50: 3.19 µM
  TGI: 11.3 µM
MCF7 breast
  GI50: 1.99 µM
  TGI: 4.34 µM
NCI-H522 lung
  GI50: 2.03 µM
  TGI: 4.55 µM
OVCAR-4 ovarian
  GI50: 2.25 µM
  TGI: 5.67 µM
HT29 colon
  GI50: 2.88 µM
  TGI: 8.51 µM
COLO 205 colon
  GI50: 2.64 µM
  TGI: 6.88 µM
CCRF-CEM leukemia
  GI50: 2.82 µM
  TGI: 9.52 µM
DU-145 prostate
  GI50: 4.44 µM
  TGI: 14.7 µM
MALME-3M melanoma
  GI50: 1.71 µM
  TGI: 3.3 µM
HOP-92 NSCLC
  GI50: 2.53 µM
  TGI: 13.5 µM
SN12C renal
  GI50: 1.71 µM
  TGI: 3.29 µM
SF-539 CNS
  GI50: 1.87 µM
  TGI: 3.55 µM
BT-549 breast
  GI50: 14.4 µM
  TGI: 28.5 µM
MOLT-4 leukemia
  GI50: 2.68 µM
  TGI: 9.38 µM
SK-MEL-28 melanoma
  GI50: 2.07 µM
  TGI: 4.35 µM
IGROV1 ovarian
  GI50: 2.61 µM
  TGI: 8.03 µM
NCI/ADR-RES ovarian
  GI50: 3.93 µM
  TGI: 14.3 µM
EKVX NSCLC
  GI50: 5.24 µM
  TGI: 18.8 µM
UACC-257 melanoma
  GI50: 2.2 µM
  TGI: 5.14 µM
M14 melanoma
  GI50: 2.07 µM
  TGI: 4.27 µM
A498 renal
  GI50: 1.52 µM
  TGI: 14.6 µM
SK-MEL-5 melanoma
  GI50: 3.71 µM
  TGI: 12.8 µM
SNB-75 CNS
  GI50: 7.82 µM
  TGI: 21.1 µM
ACHN renal
  GI50: 1.78 µM
  TGI: 3.25 µM

— PubChem BioAssay (NCI)
